Measurements taken from patent US20190083420A1, “METHODS OF USING (2R, 6R)-HYDROXYN[…] (2S, 6S)-HYDROXYN[…] THE TREATMENT OF DEPRESSION, ANXIETY, ANHEDONIA, FATIGUE, SUICIDAL IDEATION, AND POST TRAUMATIC STRESS DISORDERS” (The Uinited States of America, as represented by the …, priority 2016, published 2019).
Entries after “also recorded” stand apart in the source; their conditions may differ.

Columns and labels:
mice [1] = assay: Accelerating rotarod (motor coordination); format: in vivo; conditions: 5-60 min post-injection, i.p.
Description: The rotarod test was conducted to compare the effects of ketamine, (2S,6S)-HNK and (2R,6R)-HNK on motor coordination. The experiment consisted of two phases: training phase (4 days) and a test phase (1 day). On each of the training days five trials (trial time: 3 min) were conducted with an inter-trial interval of two min Mice were individually placed on the rotarod apparatus (HTC Life Science; Woodland Hills, Calif., USA) and the rotor (3.75 inch diameter) accelerated from 5-20 RPM over a period of three minutes. Latency to fall was recorded for each trial. Animals with an average of <100 sec of latency to fall during the last training day were excluded from the experiment. On the test day (day 5), mice received (i.p.) injections of saline, (R,S)-KET (10 mg/kg), (2S,6S)-HNK (25 or 125 mg/kg) or (2R,6R)-HNK (2.5 or 125 mg/kg) and were tested in the rotating rod 5-. 10-, 15-, 20-, 30- and 60-min post-injection using the same procedure described for the training days.

mice [2] = assay: Chronic corticosterone-induced anhedonia, female urine sniffing test; format: in vivo; conditions: single administration, mice with anhedonic phenotype, re-test 24 hours later
Description: A separate cohort of mice were treated with the same chronic corticosterone administration paradigm as described above, and 24 hours later assessed for female urine sniffing preference as a measure of hedonic behavior. Mice were singly-housed in freshly-made home cages for a habituation period of 10 min. Subsequently, one plain cotton tip was secured on the center of the cage wall and mice were allowed to sniff and habituate to the tip for a period of 30 min. Then, the plain cotton tip was removed and replaced by two cotton tip applicators one infused with fresh female mouse estrus urine and the other with fresh male mouse urine. These applicators were presented at the same time and secured at the two corners of the cage wall. Sniffing time for both the female and male urine was scored by a trained observer for a period of three minutes.

eEF2 = assay: Western blot of synaptoneurosomes, eEF2 phosphorylation; format: in vivo, mice; conditions: for phosphorylation of eEF2: hippocampus, 1 hour and 24 hours post-injection, 10 mg/kg; for eEF2 / phosphorylated eEF2: prefrontal cortex
Description: To purify synaptoneurosomes, mouse prefrontal cortex or hippocampus were dissected and homogenized in Syn-PER Reagent (ThermoFisher Scientific, Waltham, Mass., USA; Cat #87793) with 1× protease and phosphatase inhibitor cocktail (ThermoFisher Scientific, Waltham, Mass., USA; Cat #78440). The homogenate was centrifuged for 10 min at 1,200×g at 4° C. The supernatant was centrifuged at 15,000×g for 20 min. After centrifugation, the supernatant the pellet (synaptosomal fraction) was re-suspended and sonicated in N-PER Neuronal Protein Extraction Reagent (ThermoFisher Scientific, Waltham, Mass., USA; Cat #87792). For total homogenous tissue lysates, mouse prefrontal cortex or hippocampus were homogenized and sonicated in N-PER Neuronal Protein Extraction Reagent with 1× protease & phosphatase inhibitor cocktail) Protein concentration was determined via the BCA protein assay kit (ThermoFisher Scientific, Waltham, Mass., USA; Cat #23227).
For western blotting, equal amount of proteins (10-40 μg as optimal for each antibody) for each sample were loaded into NuPage 4-12% Bis-Tris gel for electrophoresis. Nitrocellulose membranes with transferred proteins were blocked with 5% milk in TBST (TBS+0.1% Tween-20) for 1 hour and kept with primary antibodies overnight at 4° C. The following primary antibodies were used: phospho-eEF2 (Cell Signaling Technology, Danvers, Mass., USA; Cat #2331), total eEF2 (Cell Signaling Technology, Danvers, Mass., USA; Cat #2332), phospho-mTOR (Cell Signaling Technology, Danvers, Mass., USA; Cat #2971), total mTOR (Cell Signaling Technology, Danvers, Mass., USA; Cat #2983), GluR1 (Cell Signaling Technology, Danvers, Mass., USA; […]), GluR2 (Cell Signaling Technology, Danvers, Mass., USA; Cat #13607), BDNF (Santa Cruz Biotechnology, Dallas, Tex., USA; Cat # sc-546), and GAPDH (Abcam, Cambridge, Mass., USA; Cat # ab8245). The next day, blots were washed three times in PBST and incubated with horseradish peroxidase conjugated anti-mouse or anti-rabbit secondary antibody (1:5000 to 1:10000) for 1 hour. After final three washes with TBST, bands were detected using enhanced chemiluminescence (ECL) with the Syngene Imaging System (G:Box ChemiXX9). After imaging, the blots then were incubated in the stripping buffer (ThermoFisher Scientific, Waltham, Mass., USA; Cat #46430) for 10-15 min at room temperature followed by three time washes with TBST. The stripped blots were washed in blocking solution for 1 hour and incubated with the primary antibody directed against total levels of the respective protein or GAPDH for loading control. Densitometric analysis of phospho- and total immunoreactive bands for each protein was conducted using Syngene's GenTools software Immunoreactivity was normalized to the saline treated control group for each protein.

mice [3] = assay: Chronic corticosterone-induced anhedonia, sucrose preference test; format: in vivo; conditions: single administration, measured after 24 hours
Description: For assessing the baseline sucrose preference, mice were singly housed for 24 hours and presented with two identical bottles containing either tap water or 1% sucrose solution. Following baseline sucrose measurement, mice were re-grouped housed (5 mice per cage) and treated for 4 weeks with corticosterone (25 μg/ml equivalent) given in water bottles. Prior to initiation of any behavioral measurements, animals were weaned off corticosterone treatment; 3 days corticosterone 12.5 μg/ml and 3 days corticosterone 6.25 μg/ml, followed by 1 week of complete withdrawal from the drug. Mice were subsequently singly-housed in freshly-made home cages and provided with two bottles containing either tap water or 1% sucrose solution. Twenty-four hours later, mice that developed anhedonia phenotype (<55% sucrose preference) were treated with saline or (2R,6R)-HNK (10 mg/kg) and sucrose preference measured after an additional 24 hours.

male CD-1 mice = assay: Novelty-suppressed feeding (NSF); format: in vivo; conditions: i.p.
From the text: Male CD-1 mice (8-10 weeks old, Charles River Laboratories, Mass., USA) were housed in groups of four-five per cage with a constant 12-hour light/dark cycle (lights on/off at 07:00/19:00). Food and water were available ad libitum. Mice acclimatized to the new environment for seven days prior to the start of the experiments. For the whole-cell NMDA current electrophysiological recordings, male Sprague-Dawley rats (housed three per cage; Charles River, Wilmington, Mass.) were used. EPSC recording were done from rats at postnatal day 24-25. All experimental procedures were approved by the University of Maryland, Baltimore Animal Care and Use Committee and were conducted in full accordance with the National Institutes of Health Guide for the Care and Use of Laboratory Animals.
Mice were singly housed and food-deprived for twenty-four hours in freshly-made home-cages. Two normal chow diet pellets were placed on a square food platform (10×10 cm) in the center of an open-field arena (40×40 cm). […] The time needed for the mice to take a bite of food was recorded over a 10 min period by a trained observer blind to the treatment groups. After the test, the mice were returned to their home cage containing pre-weighed food pellets, and latency to bite the food as well as consumption was recorded for a period of 10 min.

Compound: N[C@@]1(c2ccccc2Cl)CCC[C@@H](O)C1=O [(2R,6R)-HNK, (2R,6R)-2-amino-2-(2-chlorophenyl)-6-hydroxycyclohexanone]
- motor coordination in the rotarod (mice [1]): did not affect coordination
- reversal of chronic corticosterone-induced decrease in female urine sniffing preference (mice [2]): reversed chronic corticosterone-induced decrease in female urine sniffing preference; also recorded: reversed chronic corticosterone-induced anhedonia
- phosphorylation of eEF2 (eEF2; listed as (2R,6R)-hydroxynorketamine): decrease phosphorylation of eEF2
- eEF2 / phosphorylated eEF2 (eEF2): did not alter
- reversal of chronic corticosterone-induced decrease in sucrose preference (mice [3]): reversed chronic corticosterone-induced decreases in sucrose preference; also recorded: reversed chronic corticosterone-induced anhedonia
- antidepressant-like effect in novelty-suppressed feeding (latency to feed) (male CD-1 mice): dose-dependent antidepressant-like effects; also recorded: dose-dependent antidepressant action

Compound: CNC1(c2ccccc2Cl)CCCCC1=O (racemic) [ketamine, (R,S)-ketamine, reference compound]
- phosphorylation of eEF2 (eEF2): induced a decrease in eEF2 phosphorylation
- phosphorylation of eEF2 (eEF2; listed as (R,S)-ketamine): decrease phosphorylation of eEF2
- eEF2 / phosphorylated eEF2 (eEF2; listed as (R,S)-KET): did not alter
